Data on ten compounds can be found in PMC2759517 (PLoS ONE, 2009).

Where no end group is shown, it is not given here.

T1 sequence (Q9QLI9 whole entry): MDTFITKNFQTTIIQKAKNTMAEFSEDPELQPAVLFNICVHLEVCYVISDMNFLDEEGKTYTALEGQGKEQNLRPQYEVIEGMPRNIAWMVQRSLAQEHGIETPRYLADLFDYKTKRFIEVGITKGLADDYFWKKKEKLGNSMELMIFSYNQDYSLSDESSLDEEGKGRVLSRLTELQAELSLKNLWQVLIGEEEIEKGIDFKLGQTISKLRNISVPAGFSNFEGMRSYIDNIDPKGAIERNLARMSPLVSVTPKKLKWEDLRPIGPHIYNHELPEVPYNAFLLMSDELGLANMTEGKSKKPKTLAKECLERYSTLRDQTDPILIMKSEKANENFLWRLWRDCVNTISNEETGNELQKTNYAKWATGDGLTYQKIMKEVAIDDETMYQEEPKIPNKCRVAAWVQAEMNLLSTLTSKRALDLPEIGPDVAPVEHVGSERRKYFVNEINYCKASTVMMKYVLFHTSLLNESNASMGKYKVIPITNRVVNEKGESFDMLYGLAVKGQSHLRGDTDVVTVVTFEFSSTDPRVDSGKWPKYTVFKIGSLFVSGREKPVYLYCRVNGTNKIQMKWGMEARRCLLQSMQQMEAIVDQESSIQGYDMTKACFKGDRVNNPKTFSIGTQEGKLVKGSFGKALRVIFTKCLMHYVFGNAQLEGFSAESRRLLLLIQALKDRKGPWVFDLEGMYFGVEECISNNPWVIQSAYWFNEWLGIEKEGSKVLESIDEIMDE

The experiment has as its target T1, HA-tagged PA of FluB (Influenza B virus, UniProt Q9QLI9).
T1 construct: upstream of the initiation codon and antisense primers with a deleted stop codon; made in house; host or cells: human 293T cells, transiently transfected; unpurified cell lysate
Description: biochemical. The experiment is classed as binding.
Usually IC50 stands for the concentration needed to halve the response being measured. Consider `CC[C@H](C)[C@H](NC(=O)[C@H](CC(N)=O)NC(=O)[C@@H](N)CCSC)C(=O)N[C@@H](CC(N)=O)C(=O)N1CCC[C@H]1C(=O)N[C@H](C(=O)N[C@@H](CC(C)C)C(=O)N[C@@H](CC(C)C)C(=O)N[C@@H](Cc1ccccc1)C(=O)N[C@@H](CC(C)C)C(=O)N[C@@H](CCCCN)C(=O)N[C@H](C(=O)N1CCC[C@H]1C(=O)N[C@@H](C)C(=O)N[C@@H](CCC(N)=O)C(N)=O)C(C)C)[C@@H](C)O` [PB11-15 AD2N,V3I], for which the IC50 is more than 3000 nM.

The compound MDVNPCLLFLKVPAQ-NH2 [PB11-15 AT6C] gave an IC50 of more than 3000 nM.

The compound MDVNPFLLFLKVPAQ-NH2 [PB11-15 AT6F] gave an IC50 of 750 nM. The value for MDVNPHLLFLKVPAQ-NH2 [PB11-15 AT6H] was more than 3000 nM; that for MDVNPTFLFLKVPAQ-NH2 [PB11-15 AL7F] was more than 3000 nM; that for “MDVNPTLLFIDVPAQ-NH2 [PB11-15 AL10I,K11D]” was more than 3000 nM.

Compound MDVNPWLLFLKVPAQ-NH2 [PB11-15 AT6W] registered an IC50 of 628 nM.

As to MDVNPYFLFLKVPAQ-NH2 [PB11-15 AT6Y,L7F], the IC50 came to 345 nM. The value for MDVNPYLLFLKVPAQ-NH2 [PB11-15 AT6Y] was 107 nM.

Compound “MNINPTLLFLKVPIQ-NH2 [PB11-15 AD2N,V3I,L14I]” yielded an IC50 of more than 3000 nM.
